Results as given in patent US10829493B2, “Compositions and methods for treating KIT- and PDGFRA-mediated diseases” (Blueprint Medicines Corporation, priority 2019, dated 2020).
Like-named read-outs stand apart in the source and are kept apart here.

Columns and labels:
[1] = Brain penetration in rats, brain to plasma ratios (Kp,brain, Kpuu,brain); assay type: in vivo, Sprague-Dawley rats; conditions: for Kp uu at 24 h / Kp at 24 h: Sprague-Dawley, rat, brain, intravenous, 1 mg/kg/hr; for Kp at 24 h / Rat Kp: rat brain to plasma ratio; for Kp at 24 h: read-out: Rat Kp
Text: To understand the brain penetration, brain to plasma ratios of the compounds were obtained in Sprague-Dawley (SD) rats. In vivo equilibrium distribution between blood and brain in preclinical species such as rats is a commonly used parameter to evaluate brain penetration. Kp,brain is the ratio of concentrations in brain and blood (Cbrain/Cplasma) The compound's passive diffusion characteristics, its affinity for membrane transporters at the blood-brain barrier (BBB), and the relative drug binding affinity differences between the plasma proteins and brain tissue influence the Kp,brain.
The animals received IV infusion of 1 mg/kg/hr of the compound over 24 hours via jugular vein cannulation. At 24 hours, blood was collected via tail vein bleeding or cardiac puncture (under anesthesia) and centrifuged to obtain plasma samples. Brain tissues were collected and homogenized with phosphate-buffered saline (PBS). The concentrations of the compounds were obtained in the plasma and brain homogenates by LC-MS/MS analysis.

KIT D816V [2] = molecular target: KIT D816V (Homo sapiens (Human), UniProt P10721, D816V); test: KIT D816V biochemical enzymatic activity assay (EZReader 2 mobility shift); conditions: at APPKM for ATP, 20 μM ATP, 60 minutes
KIT D816V (Homo sapiens (Human), UniProt P10721, D816V), sequence (P10721 26-976 D816V): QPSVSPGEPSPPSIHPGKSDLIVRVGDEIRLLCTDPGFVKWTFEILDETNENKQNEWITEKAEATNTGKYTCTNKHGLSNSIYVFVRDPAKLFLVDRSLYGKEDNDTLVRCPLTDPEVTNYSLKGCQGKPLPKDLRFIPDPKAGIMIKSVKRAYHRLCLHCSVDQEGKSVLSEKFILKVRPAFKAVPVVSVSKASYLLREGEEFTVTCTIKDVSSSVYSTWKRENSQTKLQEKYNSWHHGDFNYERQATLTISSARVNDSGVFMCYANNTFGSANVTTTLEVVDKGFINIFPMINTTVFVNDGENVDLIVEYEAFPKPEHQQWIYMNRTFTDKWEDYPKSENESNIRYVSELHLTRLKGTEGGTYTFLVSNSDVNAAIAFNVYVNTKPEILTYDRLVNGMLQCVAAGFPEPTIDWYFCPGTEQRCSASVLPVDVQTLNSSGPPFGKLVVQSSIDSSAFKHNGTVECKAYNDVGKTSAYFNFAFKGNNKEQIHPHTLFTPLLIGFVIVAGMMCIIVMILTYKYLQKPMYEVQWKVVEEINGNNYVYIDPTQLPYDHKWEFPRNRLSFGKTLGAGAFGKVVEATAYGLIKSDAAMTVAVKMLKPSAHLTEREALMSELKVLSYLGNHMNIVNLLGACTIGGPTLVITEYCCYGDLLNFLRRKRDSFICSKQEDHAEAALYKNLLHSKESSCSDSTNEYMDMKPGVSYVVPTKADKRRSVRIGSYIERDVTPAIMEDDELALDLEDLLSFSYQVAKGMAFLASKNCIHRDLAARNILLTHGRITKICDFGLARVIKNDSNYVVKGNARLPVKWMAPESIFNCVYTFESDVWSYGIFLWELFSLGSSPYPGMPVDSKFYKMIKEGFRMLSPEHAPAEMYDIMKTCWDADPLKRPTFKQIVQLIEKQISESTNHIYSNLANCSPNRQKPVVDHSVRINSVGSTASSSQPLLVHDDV
Text: (§1) PDGFRα and KIT enzymatic activity was monitored using the Perkin Elmer electrophoretic mobility shift technology platform, the EZReader 2.
(§2) Within the linear, steady-state phase of the kinase enzymatic reaction, the mixed pool of phosphorylated (product) and non-phosphorylated (substrate) peptides was passed through the microfluidic system of the PerkinElmer EZ Reader 2, under an applied electric potential difference. The presence of the phosphate group on the product peptide provided a difference in mass and charge between that of the substrate peptide, resulting in a separation of the substrate and product pools in the sample (Perrin et al., Expert Opin Drug Discovery 2010 Jan. 5(1):51-63).
(§3) As the product and substrate peptide mixture passes the lasers within the instrument, these pools are detected (λex=488 nm, λem=568 nm) and resolved as separate peaks. The ratio between these peaks reflects the activity of the compound at that concentration, in that well, under those conditions.
(§4) All test articles were dissolved in 100% DMSO at a stock concentration of 10 mM. A 100×, 10-point, 4-fold serial dilution of all test compounds was created in 100% DMSO, starting at a relevant concentration, usually 1 mM. A volume of 0.130 μL of each concentration was transferred to the relevant well of a 384-well assay plate (Greiner 781 201) using a TTPLabtech Mosquito nano-liter dispenser. Using the Multidrop, the remaining constituents of the reaction were then added to the 0.130 μL of compound as follows:
The plate was read on a Caliper EZReader 2.

wt KIT kinase = wt KIT kinase (Homo sapiens (Human), UniProt P10721); test: Wild-type KIT binding assay (Kd determination, phage-tagged kinase, qPCR)
wt KIT kinase, sequence (P10721 26-976): as the sequence (P10721 26-976 D816V) above, with V791D counted along it
Protocol: Kd Determinations. For most assays, including wt KIT kinase, kinase-tagged T7 phage strains were prepared in an E. coli host derived from the BL21 strain. E. coli were grown to log-phase and infected with T7 phage and incubated with shaking at 32° C. until lysis. […] The liganded beads were blocked with excess biotin and washed with blocking buffer (SeaBlock (Pierce), 1% BSA, 0.05% Tween 20, 1 mM DTT) to remove unbound ligand and to reduce non-specific binding. […] Test compounds were prepared as 111× stocks in 100% DMSO. Kds were determined using an 11-point 3-fold compound dilution series with three DMSO control points. […] The compounds were then diluted directly into the assays such that the final concentration of DMSO was 0.9%. All reactions were performed in polypropylene 384-well plate. Each was a final volume of 0.02 ml. […] The kinase concentration in the eluates was measured by qPCR.
Binding Constants (Kds). Binding constants (Kds) were calculated with a standard dose-response curve using the Hill equation: Response=Background+Signal−Background 1+(KdHill Slope/DoseHill Slope). The Hill Slope was set to −1. Curves were fitted using a non-linear least square fit with the Levenberg-Marquardt algorithm.

PDGFRα D842V = PDGFRα D842V (Homo sapiens (Human), UniProt P16234, D842V); test: PDGFRα D842V biochemical enzymatic activity assay (EZReader 2 mobility shift); conditions: at APPKM for ATP, 25 μM ATP, 90 minutes
PDGFRα D842V, sequence (P16234 24-1089 D842V): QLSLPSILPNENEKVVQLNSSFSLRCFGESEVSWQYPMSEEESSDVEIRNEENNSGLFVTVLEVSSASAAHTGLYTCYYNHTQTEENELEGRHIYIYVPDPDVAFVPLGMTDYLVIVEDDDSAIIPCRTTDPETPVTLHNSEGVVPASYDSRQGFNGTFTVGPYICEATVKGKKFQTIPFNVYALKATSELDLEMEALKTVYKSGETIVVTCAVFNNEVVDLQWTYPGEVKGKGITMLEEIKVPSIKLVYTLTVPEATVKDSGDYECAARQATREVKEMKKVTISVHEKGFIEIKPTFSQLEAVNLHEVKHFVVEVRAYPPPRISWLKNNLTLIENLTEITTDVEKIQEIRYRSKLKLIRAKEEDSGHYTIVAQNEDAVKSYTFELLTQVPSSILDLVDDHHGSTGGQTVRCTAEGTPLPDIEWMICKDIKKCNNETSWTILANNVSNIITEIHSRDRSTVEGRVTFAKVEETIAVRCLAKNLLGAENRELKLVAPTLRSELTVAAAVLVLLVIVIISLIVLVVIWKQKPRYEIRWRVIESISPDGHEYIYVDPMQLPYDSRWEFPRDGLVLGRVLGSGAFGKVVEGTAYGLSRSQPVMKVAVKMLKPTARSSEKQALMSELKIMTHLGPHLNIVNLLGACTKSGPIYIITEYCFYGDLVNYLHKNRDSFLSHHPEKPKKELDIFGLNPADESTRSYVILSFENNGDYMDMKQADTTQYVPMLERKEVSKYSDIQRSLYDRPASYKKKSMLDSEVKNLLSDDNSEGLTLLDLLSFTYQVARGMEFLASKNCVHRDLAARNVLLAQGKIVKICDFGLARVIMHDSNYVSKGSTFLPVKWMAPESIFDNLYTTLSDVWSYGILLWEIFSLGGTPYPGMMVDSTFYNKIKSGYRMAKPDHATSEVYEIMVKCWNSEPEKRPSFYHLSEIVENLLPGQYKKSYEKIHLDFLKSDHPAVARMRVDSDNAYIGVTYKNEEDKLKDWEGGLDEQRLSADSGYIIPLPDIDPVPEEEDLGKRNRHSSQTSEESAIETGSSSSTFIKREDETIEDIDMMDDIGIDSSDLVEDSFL
Text: as §1, §2, §3
Inhibition of KIT (D816V) PDGFRα (D842V) Mutant Biochemical Enzymatic Activity
as §4
The reaction was stopped by the addition of 70 μl of Stop buffer (100 mM HEPES pH 7.5, 0.015% Brij 35, 35 mM EDTA and 0.2% of Coating Reagent 3, Caliper Lifesciences). The plate was read on a Caliper EZReader 2.

UT-7 cells = test: UT-7 cell proliferation with SCF stimulation as a measure of wild-type KIT activity (CellTiter-Glo); assay type: cell-based, human; conditions: Homo sapiens, UT7, 72 h, SCF-stimulated UT-7 cell proliferation
Text: UT-7 Cell Proliferation with SCF Stimulation Assay as a Measure of Wild-Type KIT Activity
UT-7 cells are human megakaryoblastic leukemia cell lines that can be grown in culture with dependence on granulocyte macrophage colony stimulating factor (GM-CSF) or stem cell factor (SCF). UT-7 cells respond to SCF stimulation by activation of the KIT receptor tyrosine kinase and subsequent downstream signaling that can support cell growth and proliferation (Kuriu et al, 1999; Komatsu et al, 1991; Sasaki et al, 1995). Test compounds were assayed for their ability to inhibit SCF-stimulated proliferation of UT-7 cells.
Inhibition of SCF-stimulated UT-7 cell proliferation was assessed using the CellTiter-Glo assay that quantifies the amount of adenosine triphosphate (ATP) present, which is a readout of metabolically active cells and is directly proportional to the number of viable cells in culture. The ability of test compounds to inhibit SCF-stimulated UT-7 cell proliferation was determined using a 10-point dose curve ranging from 25 μM to 95.4 pM of test compound.
UT-7 cells were maintained in IMDM supplemented with 10% FBS, 5 ng/mL GM-CSF and 100 units/mL Penicillin-Streptomycin and grown in a 37° C. humidified tissue culture incubator. UT-7 cells were washed once with serum free, GM-CSF free IMDM. Cells were then resuspended in IMDM containing 4% FBS and 50 ng/mL SCF and seeded at 2500 cells per well in a volume of 22 μL in a 384-well microplate. A 10-point dose concentration series of test compounds (25.0 μM to 95.4 pM) were then added to the cells in a volume of 3.1 μL to each well (0.25% DMSO final concentration) and placed in a tissue culture incubator (5% CO2, 37° C.) for 72 hours. After 3-days with test compound, CellTiter-Glo reagent was prepared fresh and 25 μL of reagent was added to each well. The plate was mixed by shaking for 10 minutes at RT at 300 rpm on a plate shaker. The plate was read on an EnVision plate reader using the Ultra Sensitive Luminescence protocol for a 384-well plate.

KIT D816V [3] = molecular target: KIT D816V (Homo sapiens (Human), UniProt P10721, D816V/V560G); test: HMC1.2 autophosphorylation assay (phospho-Y719 KIT AlphaLISA); assay type: cell-based; conditions: HMC1.2 cell line, KIT autophosphorylation at tyrosine 719, 90 minutes; read-out: KIT (P-KIT HMC1.2 (nM))
KIT D816V (Homo sapiens (Human), UniProt P10721, D816V/V560G), sequence (P10721 26-976 V560G/D816V): as the sequence (P10721 26-976 D816V) above, with V535G counted along it
Protocol: 10,000 HMC1.2 cells were incubated in 22 μL culture media (phenol-red free IMDM, no serum) in each well of a 384-well plate and serum starved overnight in a tissue culture incubator (5% CO2, 37° C.). […] 10 μL of 100 μg/mL streptavidin donor beads (Perkin Elmer) were added to each well, blocked from light with solid black adhesive and shaken at 300 rpm at room temperature for 2 hours. Fluorescence signal was obtained on Envision (Perkin Elmer) by AlphaScreen 384 well HTS protocol.

[4] = rat brain slice, read-out: Rat Kp, uu Brain slice
[5] = homogenate rat brain, read-out: Rat Kp, uu Homogenate

SMILES | Kp uu at 24 h [1, 4] | IC50 (KIT D816V [2]) [nM] | Kd (wt KIT kinase) [nM] | IC50 (PDGFRα D842V) [nM] | IC50 (UT-7 cells) [nM] | IC50 (KIT D816V [3]) [nM] | Kp uu at 24 h [1, 5] | Kp at 24 h [1] | Rat Kp [1]
C[C@](N)(c1ccc(F)cc1)c1cnc(N2CCN(c3ncnn4cc(-c5cnn([C@@H]6COC[C@H]6O)c5)cc34)CC2)nc1 (single isomer, unassigned) [Compound 19] | 0.04 | ≤ 0.3 | < 10 | ≤ 0.3 | 90.1 to 150 | < 4.5 | – | – | –
C[C@](N)(c1ccc(F)cc1)c1cnc(N2CCN(c3ncnn4cc(-c5cnn([C@H]6CC[C@@H]6O)c5)cc34)CC2)nc1 (single isomer, unassigned) [Compound 21] | ≤ 0.1 | 0.31 to 1 | < 10 | ≤ 0.3 | 90.1 to 150 | < 4.5 | 0.36 | – | –
C[C@](N)(c1ccc(F)cc1)c1cnc(N2CCN(c3ncnn4cc(-c5cnn(CC6COC6)c5)cc34)CC2)nc1 [Compound 8, (S)-1-(4-fluorophenyl)-1-(2-(4-(6-(1-(oxetan-3-ylmethyl)-1H-pyrazol-4-yl)pyrrolo[2,1-f][1,2,4]triazin-4-yl)piperazin-1-yl)pyrimidin-5-yl)ethan-1-amine] | ≤ 0.1 | ≤ 0.3 | < 10 | ≤ 0.3 | < 90 | < 4.5 | ≤ 0.2 | 0.43 | –
C[C@](N)(c1ccc(F)cc1)c1cnc(N2CCN(c3ncnn4cc(-c5cnn([C@H]6C[C@@H](O)C6)c5)cc34)CC2)nc1 [Compound 10, cis-3-(4-(4-(4-(5-((S)-1-Amino-1-(4-fluorophenyl)ethyl)pyrimidin-2-yl)piperazin-1-yl)pyrrolo[2,1-f][1,2,4]triazin-6-yl)-1H-pyrazol-1-yl)cyclobutanol] | – | 0.31 to 1 | < 10 | ≤ 0.3 | < 90 | < 4.5 | – | – | 0.23
C[C@](N)(c1ccc(F)cc1)c1cnc(N2CCN(c3ncnn4cc(-c5cnn([C@@H]6CCOC6)c5)cc34)CC2)nc1 [Compound 14, (S)-1-(4-Fluorophenyl)-1-(2-(4-(6-(1-((R)-tetrahydrofuran-3-yl)-1H-pyrazol-4-yl)pyrrolo[2,1-f][1,2,4]triazin-4-yl)piperazin-1-yl)pyrimidin-5-yl)ethanamine] | – | ≤ 0.3 | < 10 | ≤ 0.3 | 150 to 200 | < 4.5 | 0.22 | < 0.39 | 0.35
C[C@](N)(c1ccc(F)cc1)c1cnc(N2CCN(c3ncnn4cc(-c5cnn([C@H]6CCOC6)c5)cc34)CC2)nc1 [Compound 15, (S)-1-(4-Fluorophenyl)-1-(2-(4-(6-(1-((S)-tetrahydrofuran-3-yl)-1H-pyrazol-4-yl)pyrrolo[2,1-f][1,2,4]triazin-4-yl)piperazin-1-yl)pyrimidin-5-yl)ethanamine] | ≤ 0.1 | ≤ 0.3 | < 10 | ≤ 0.3 | 150 to 200 | < 4.5 | 0.62 | 0.9 | –
C[C@](N)(c1ccc(F)cc1)c1cnc(N2CCN(c3ncnn4cc(-c5cnn(C6CCOCC6)c5)cc34)CC2)nc1 [Compound 16, (S)-1-(4-Fluorophenyl)-1-(2-(4-(6-(1-(tetrahydro-2H-pyran-4-yl)-1H-pyrazol-4-yl)pyrrolo[2,1-f][1,2,4]triazin-4-yl)piperazin-1-yl)pyrimidin-5-yl)ethan-1-amine] | ≤ 0.1 | ≤ 0.3 | < 10 | ≤ 0.3 | 150 to 200 | 4.6 to 10 | ≤ 0.2 | 0.93 | –
